According to patent publication US20230159510A1, “NOVEL PRMT5 INHIBITORS” (AMGEN INC., priority 2020, published 2023):

Legend:
[1] = tested on: HCT116 MTAP null cells; assay: HCT116 proliferation assay, MTAP null cells (CellTiter-Glo, 6 days); format: cell-based; conditions: HCT116-MTAP null, 144 h, read-out: Protif_ HCT116-MTAP null IC50
Summary of the method: (§1)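 Luminescent viability signal was measured after continuous drug exposure. Before dosing, cells attached overnight (37° C, 5% CO2) in RPMI 1640 + 10% FBS. Dosing used 1:3 steps over 8 or 9 points, starting at 1 or 10 µM, with DMSO-only wells as control.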

[2] = tested on: HCT116 WT cells; assay: HCT116 proliferation assay, WT cells (CellTiter-Glo, 6 days); format: cell-based; conditions: Homo sapiens, HCT-116, 144 h, read-out: Prolif_HCT116-WT IC50
Summary of the method: as §1

[3] = biological target: PRMT5/MEP50 (Homo sapiens, UniProt O14744); assay: MTase-Glo methyl transferase assay, Method B (FL-Histone H2A, 1 µM MTA, 1 h pre-incubation); format: biochemical; design: purchased Reaction Biology Corp RD-11-292; conditions: read-out: PRMT5 MTase Glo Ki (nM, Meth. B)
Summary of the method: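 PRMT5/MEP50 (4 nM) was pre-incubated 1 h with compound, 5 µM SAM and 1 µM MTA, then started with 2.5 µM FL-Histone H2A in Tris pH 8.0 buffer. After 20 h at room temperature, SAH was detected by MTase-Glo luminescence, and IC50/KI were fitted from dose-response curves.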

PRMT5/MEP50, sequence (O14744 2-637 limits assumed): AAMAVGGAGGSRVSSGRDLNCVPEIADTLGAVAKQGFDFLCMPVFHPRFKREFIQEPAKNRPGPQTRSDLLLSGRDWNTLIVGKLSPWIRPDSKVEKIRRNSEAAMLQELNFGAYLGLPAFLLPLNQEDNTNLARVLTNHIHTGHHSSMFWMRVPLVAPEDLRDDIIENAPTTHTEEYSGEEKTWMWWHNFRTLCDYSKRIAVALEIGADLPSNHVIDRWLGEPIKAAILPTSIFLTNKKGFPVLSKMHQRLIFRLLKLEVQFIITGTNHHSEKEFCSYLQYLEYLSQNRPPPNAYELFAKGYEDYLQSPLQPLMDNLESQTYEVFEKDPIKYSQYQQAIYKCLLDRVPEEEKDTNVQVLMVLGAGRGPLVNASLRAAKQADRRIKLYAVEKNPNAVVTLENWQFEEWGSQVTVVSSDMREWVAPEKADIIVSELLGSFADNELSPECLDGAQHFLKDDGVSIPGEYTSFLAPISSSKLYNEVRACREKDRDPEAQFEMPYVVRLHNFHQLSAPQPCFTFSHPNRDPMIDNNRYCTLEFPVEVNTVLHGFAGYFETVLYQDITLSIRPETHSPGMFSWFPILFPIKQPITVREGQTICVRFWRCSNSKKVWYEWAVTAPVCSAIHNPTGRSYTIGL
PRMT5/MEP50, sequence (Q9BQA1 2-342 partner limits assumed): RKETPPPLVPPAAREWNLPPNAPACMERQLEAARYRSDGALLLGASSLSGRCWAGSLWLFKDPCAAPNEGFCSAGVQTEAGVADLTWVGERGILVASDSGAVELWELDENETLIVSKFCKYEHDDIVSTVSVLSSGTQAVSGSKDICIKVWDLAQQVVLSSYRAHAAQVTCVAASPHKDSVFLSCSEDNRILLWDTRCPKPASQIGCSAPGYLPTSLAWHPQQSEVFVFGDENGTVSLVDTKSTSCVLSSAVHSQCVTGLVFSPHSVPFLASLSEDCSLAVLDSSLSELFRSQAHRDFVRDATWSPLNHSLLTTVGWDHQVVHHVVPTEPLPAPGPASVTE

Compound: Cc1cc2cc(C(=O)N(Cc3ccc(C(F)(F)F)cn3)C3CC(C)c4ccccc43)ccc2nc1N (stereo not drawn) [Example 595, 2-amino-3-methyl-N-(3-methyl-2,3-dihydro-1H-inden-1-yl)-N-((5-(trifluoromethyl)pyridin-2-yl)methyl)quinoline-6-carboxamide]
- IC50 [1]: 0.99 µM
- IC50 [2]: 8.2 µM
- Ki [3]: 21.5 nM

Compound: Cc1cc2cc(C(=O)N(Cc3ccc(C(F)(F)F)cn3)Cc3ccnc4[nH]ccc34)ncc2nc1N [Example 684, 2-amino-3-methyl-N-(1H-pyrrolo[2,3-b]pyridin-4-ylmethyl)-N-[[5-(trifluoromethyl)-2-pyridyl]methyl]-1,7-naphthyridine-6-carboxamide]
- IC50 [1]: 0.114 µM
- IC50 [2]: > 1 µM
- Ki [3]: 2.29 nM

Compound: Cc1cc2cc(C(=O)N(Cc3ccc(C(F)(F)F)cn3)C3CCc4c(O)cccc43)ccc2nc1N (stereo not drawn) [Example 628, 2-amino-N-(4-hydroxy-2,3-dihydro-1H-inden-1-yl)-3-methyl-N-((5-(trifluoromethyl)pyridin-2-yl)methyl)quinoline-6-carboxamide]
- IC50 [1]: 0.053 µM
- IC50 [2]: 0.44 µM
- Ki [3]: 3 to 4 nM

Compound: Cc1cc2cc(C(=O)N(Cc3ccc(N4CCC(C(N)=O)CC4)cc3)Cc3scnc3C)ccc2nc1N [Example 572, 2-amino-N-(4-(4-carbamoylpiperidin-1-yl)benzyl)-3-methyl-N-((4-methylthiazol-5-yl)methyl)quinoline-6-carboxamide]
- IC50 [1]: 0.608 µM
- IC50 [2]: > 10 µM
- Ki [3]: 3.48 nM

Compound: COC(CN(Cc1ccc(C(F)(F)F)cn1)C(=O)c1ccc2nc(N)c(C)cc2c1)C(C)C (stereo not drawn) [Example 613, 2-amino-N-(2-methoxy-3-methylbutyl)-3-methyl-N-((5-(trifluoromethyl)pyridin-2-yl)methyl)quinoline-6-carboxamide]
- IC50 [1]: 0.269 µM
- IC50 [2]: 3.9 µM
- Ki [3]: 4.35 nM

Compound: Cc1cc2cc(C(=O)N(Cc3ccc(C(F)(F)F)cn3)CC3CCC3)ccc2nc1N [Example 562, 2-amino-N-(cyclobutylmethyl)-3-methyl-N-[[5-(trifluoromethyl)-2-pyridyl]methyl]quinoline-6-carboxamide]
- IC50 [1]: 0.455 µM
- IC50 [2]: > 1 µM
- Ki [3]: 3.76 nM

Compound: Cc1cc2cc(C(=O)N(Cc3ccc(C(F)(F)F)cn3)CC3(C#N)CC3)ccc2nc1N [Example 577, 2-amino-N-((1-cyanocyclopropyl)methyl)-3-methyl-N-((5-(trifluoromethyl)pyridin-2-yl)methyl)quinoline-6-carboxamide]
- IC50 [1]: 0.159 µM
- IC50 [2]: 6.65 µM
- Ki [3]: 3.89 nM

Compound: Cc1cc2cc(C(=O)N(Cc3ccc(C(F)(F)F)cn3)CC3CCOCC3)ccc2nc1N [Example 683, 2-amino-3-methyl-N-(tetrahydropyran-4-ylmethyl)-N-[[5-(trifluoromethyl)-2-pyridyl]methyl] quinoline-6-carboxamide]
- IC50 [1]: 0.297 µM
- IC50 [2]: > 1 µM
- Ki [3]: 4.29 nM

Compound: Cc1cc2cc(C(=O)N(Cc3ccc(C(F)(F)F)cn3)C3CCCc4[nH]ccc43)ccc2nc1N (stereo not drawn) [Example 603, 2-amino-3-methyl-N-(4,5,6,7-tetrahydro-1H-indol-4-yl)-N-((5-(trifluoromethyl)pyridin-2-yl)methyl)quinoline-6-carboxamide]
- IC50 [1]: 0.317 µM
- IC50 [2]: > 1.5 µM
- Ki [3]: 23.7 nM

Compound: Cc1cc2cc(C(=O)N(Cc3ccc(C(F)(F)F)cn3)CC(C)C#N)ccc2nc1N (stereo not drawn) [Example 694, 2-amino-N-(2-cyanopropyl)-3-methyl-N-[[5-(trifluoromethyl)-2-pyridyl]methyl] quinoline-6-carboxamide]
- IC50 [1]: 0.224 µM
- IC50 [2]: 8.6 µM
- Ki [3]: 5.62 nM

Compound: Cc1cc2cc(C(=O)N(Cc3cccc(O)c3)Cc3ccc(C(F)(F)F)cn3)ccc2nc1N [Example 600, 2-amino-N-[(3-hydroxyphenyl)methyl]-3-methyl-N-[[5-(trifluoromethyl)-2-pyridyl]methyl] quinoline-6-carboxamide]
- IC50 [1]: 0.044 µM
- IC50 [2]: > 1 µM
- Ki [3]: 1.83 nM

Compound: Cc1cc2cc(C(=O)N(Cc3ccc4[nH]ccc4c3)Cc3ccc(C(F)(F)F)cn3)ccc2nc1N [Example 623, N-((1H-indol-5-yl)methyl)-2-amino-3-methyl-N-((5-(trifluoromethyl)pyridin-2-yl)methyl)quinoline-6-carboxamide]
- IC50 [1]: 0.056 µM
- IC50 [2]: 0.9 µM
- Ki [3]: 3.14 nM

Compound: Cc1cc2cc(C(=O)N(Cc3ccc(C(F)(F)F)cn3)CC3CCn4ccnc4C3)ccc2nc1N (stereo not drawn) [Example 614, 2-amino-3-methyl-N-((5,6,7,8-tetrahydroimidazo [1,2-a]pyridin-7-yl)methyl)-N-((5-(trifluoromethyl)pyridin-2-yl)methyl)quinoline-6-carboxamide]
- IC50 [1]: 0.95 µM
- IC50 [2]: > 1 µM
- Ki [3]: 9.42 nM

Compound: Cc1cc2cc(C(=O)N(Cc3ccc(C#N)cn3)C3CCCC3C#N)c(F)cc2nc1N (stereo not drawn) [Example 703, 2-amino-N-(2-cyanocyclopentyl)-N-[(5-cyano-2-pyridyl)methyl] -7-fluoro-3-methyl-quinoline-6-carboxamide]
- IC50 [1]: 0.222 µM
- IC50 [2]: 2.3 µM
- Ki [3]: 5.62 nM

Compound: Cc1cc2cc(C(=O)N(Cc3cncc(F)c3)Cc3ccccc3F)ccc2nc1N [Example 590, 2-amino-N-(2-fluorobenzyl)-N-((5-fluoropyridin-3-yl)methyl)-3-methylquinoline-6-carboxamide]
- IC50 [1]: 0.921 µM
- IC50 [2]: 6.8 µM
- Ki [3]: 14.9 nM

Compound: Cc1cc2cc(C(=O)N(Cc3ccc(C(F)(F)F)cn3)C3COCc4ccccc43)ccc2nc1N (stereo not drawn) [Example 593, 2-amino-N-(isochroman-4-yl)-3-methyl-N-((5-(trifluoromethyl)pyridin-2-yl)methyl)quinoline-6-carboxamide]
- IC50 [1]: 0.185 µM
- IC50 [2]: > 1 µM
- Ki [3]: 13.2 nM

Compound: Cc1cc2cc(C(=O)N(Cc3ccc(C(F)(F)F)cn3)C3CC(C)(C)c4ccccc43)ccc2nc1N (stereo not drawn) [Example 594, 2-amino-N-(3,3-dimethyl-2,3-dihydro-1H-inden-1-yl)-3-methyl-N-((5-(trifluoromethyl)pyridin-2-yl)methyl)quinoline-6-carboxamide]
- IC50 [1]: 0.64 µM
- IC50 [2]: > 1 µM
- Ki [3]: 26 nM

Compound: Cc1cc2cc(C(=O)N(Cc3ccc(C(F)(F)F)cn3)Cc3cc4c([nH]c3=O)CCC4)ccc2nc1N [Example 599, 2-amino-3-methyl-N-[(2-oxo-1,5,6,7-tetrahydrocyclopenta[b]pyridin-3-yl)methyl]-N-[[5-(trifluoromethyl)-2-pyridyl]methyl] quinoline-6-carboxamide]
- IC50 [1]: 0.28 µM
- IC50 [2]: > 1 µM
- Ki [3]: 3.12 nM

Compound: Cc1cc2cc(C(=O)N(Cc3ccc(C(F)(F)F)cn3)C3CCCc4occc43)ccc2nc1N (stereo not drawn) [Example 606, 2-amino-3-methyl-N-(4,5,6,7-tetrahydrobenzofuran-4-yl)-N-((5-(trifluoromethyl)pyridin-2-yl)methyl)quinoline-6-carboxamide]
- IC50 [1]: 0.027 µM
- IC50 [2]: 0.28 µM
- Ki [3]: 2.9 nM

Compound: Cc1nc2c(s1)C(N(Cc1ccc(C(F)(F)F)cn1)C(=O)c1ccc3nc(N)c(C)cc3c1)CCC2 (stereo not drawn) [Example 604, 2-amino-3-methyl-N-(2-methyl-4,5,6,7-tetrahydrobenzo[d]thiazol-7-yl)-N-((5-(trifluoromethyl)pyridin-2-yl)methyl)quinoline-6-carboxamide]
- IC50 [1]: 0.044 µM
- IC50 [2]: 0.4 µM
- Ki [3]: 5.46 nM

Compound: Cc1cc(N)nc2ccc(C(=O)N(Cc3ccc(C(F)(F)F)cn3)Cc3ncn(C)n3)cc12 [Example 710, 2-amino-4-methyl-N-[(1-methyl-1,2,4-triazol-3-yl)methyl]-N-[[5-(trifluoromethyl)-2-pyridyl]methyl] quinoline-6-carboxamide]
- IC50 [1]: 0.177 µM
- IC50 [2]: 1.14 µM
- Ki [3]: 4.13 nM

Compound: Cc1cc2cc(C(=O)N(Cc3ccc(C(F)(F)F)cn3)C3CCCc4nn(C)cc43)ccc2nc1N (stereo not drawn) [Example 605, 2-amino-3-methyl-N-(2-methyl-4,5,6,7-tetrahydro-2H-indazol-4-yl)-N-((5-(trifluoromethyl)pyridin-2-yl)methyl)quinoline-6-carboxamide]
- IC50 [1]: 0.145 µM
- IC50 [2]: > 1.3 µM
- Ki [3]: 6.2 nM

Compound: Cc1cc2cc(C(=O)N(Cc3ccc(CC(N)=O)cc3)Cc3ccc(C(F)(F)F)cn3)ccc2nc1N [Example 680, 2-amino-N-[ [4-(2-amino-2-oxoethyl)phenyl]methyl]-3-methyl-N-[[5-(trifluoromethyl)-2-pyridyl]methyl] quinoline-6-carboxamide]
- IC50 [1]: 0.157 µM
- IC50 [2]: 7.7 µM
- Ki [3]: 1.76 nM

Compound: Cc1cc2cc(C(=O)N(Cc3ccc(C(F)(F)F)cn3)C3CCc4[nH]ncc4C3)ccc2nc1N (stereo not drawn) [Example 672, 2-amino-3-methyl-N-(4,5,6,7-tetrahydro-1H-mdazol-5-yl)-N-[[5-(trifluoromethyl)-2-pyridyl]methyl] quinoline-6-carboxamide]
- IC50 [1]: 0.404 µM
- IC50 [2]: > 1 µM
- Ki [3]: 5.56 nM

Compound: Cc1cc2cc(C(=O)N(Cc3ccc(C(F)(F)F)cn3)C3COc4ccccc43)ccc2nc1N (stereo not drawn) [Example 608, 2-amino-N-(2,3-dihydrobenzofuran-3-yl)-3-methyl-N-((5-(trifluoromethyl)pyridin-2-yl)methyl)quinoline-6-carboxamide]
- IC50 [1]: 0.4 µM
- IC50 [2]: > 1 µM
- Ki [3]: 5.26 nM

Compound: Cc1cc2cc(C(=O)N(Cc3ccc4[nH]c(=O)[nH]c4c3)Cc3ccc(C(F)(F)F)cn3)ccc2nc1N [Example 570, 2-amino-3-methyl-N-((2-oxo-2,3-dihydro-1H-benzo[d]imidazol-5-yl)methyl)-N-((5-(trifluoromethyl)pyridin-2-yl)methyl)quinoline-6-carboxamide]
- IC50 [1]: 0.343 µM
- IC50 [2]: > 10 µM
- Ki [3]: 2.39 nM
